Test results as given in patent US9833497B2, “Human originated EGF domain proteins and use of the same” (CHENGDU SOURCEBIO LIMITED-LIABILITY COMPANY, priority 2013, dated 2017).

test system: Proteus mirabilis; assay: MIC against Gram-negative bacteria: Proteus mirabilis; type: cell-based; conditions: P. mirabilis; 10 h cultivation at 37° C.
Procedure, shortened: (§1)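 First, colonies from LB agar were grown in LB at 37° C, 185 rpm, to McFarland turbidity 0.5, then centrifuged and resuspended in fresh LB. Next, wells received 5×10^5 CFU/mL bacteria plus two-fold serially diluted EGF domain protein (triplicate). Finally, plates were shaken at 37° C and the no-growth concentration taken as MIC.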

Substance	MIC [µg/mL]
PRT998 (VPLCAPNLCQPKQICKDQKDKANCLCPDGSPGCA; listed as Homo sapiens)	25

same assay, conditions: P. mirabilis; 10 h cultivation at 37° C.; 5×10^5 CFU/mL

Substance	MIC (μg/mL) P. mirabilis [µg/mL]
PRT169 (CIRYPGCLHGTCQQPWQCNCQEGWGGLFC; listed as Homo sapiens)	50
PRT874 (CNCNQIGSVHDRCNETGFCECREGAAGPKCDDCLPTHYWRQGCYP; listed as Homo sapiens)	12.5
PRT156 (DINECDSNPCHHGGSCLDQPNGYNCHCPHGWVGANCE; listed as Homo sapiens)	12.5

test system: Aeromonas hydrophila; assay: MIC against Gram-negative bacteria: Aeromonas hydrophila; type: cell-based; conditions: A. hydrophila; 10 h cultivation at 37° C.
Procedure, shortened: as §1

Substance	MIC [µg/mL]
PRT998 (VPLCAPNLCQPKQICKDQKDKANCLCPDGSPGCA; listed as Homo sapiens)	50

same assay, conditions: A. hydrophila; 10 h cultivation at 37° C.; 5×10^5 CFU/mL

Substance	MIC (μg/mL) A. hydrophila [µg/mL]
PRT169 (CIRYPGCLHGTCQQPWQCNCQEGWGGLFC; listed as Homo sapiens)	25
PRT874 (CNCNQIGSVHDRCNETGFCECREGAAGPKCDDCLPTHYWRQGCYP; listed as Homo sapiens)	12.5
PRT156 (DINECDSNPCHHGGSCLDQPNGYNCHCPHGWVGANCE; listed as Homo sapiens)	25

test system: E. coli DH5α; assay: Antibacterial activity: MIC and growth curve against E. coli DH5α in 96-well plate; type: cell-based; conditions: minimal inhibitory concentration against E. coli DH5α; 96-well plate, 5×10^5 CFU/mL, 37° C., judged after 8 h
Procedure, shortened: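 MIC taken as lowest protein level with no bacterial growth, tracked by A600 every 30 min during 37 °C, 175 rpm culture. Two-fold protein series 50-12.5 μg/mL final, triplicate wells, against 5×10^5 CFU/mL of LB-washed mid-log cells.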

Substance	MIC [µg/mL]
PRT169 (CIRYPGCLHGTCQQPWQCNCQEGWGGLFC; listed as Homo sapiens)	50
PRT874 (CNCNQIGSVHDRCNETGFCECREGAAGPKCDDCLPTHYWRQGCYP; listed as Homo sapiens)	12.5
PRT156 (DINECDSNPCHHGGSCLDQPNGYNCHCPHGWVGANCE; listed as Homo sapiens)	25
PRT998 (VPLCAPNLCQPKQICKDQKDKANCLCPDGSPGCA; listed as Homo sapiens)	12.5

test system: Citrobacter diversus; assay: MIC against Gram-negative bacteria: Citrobacter diversus; type: cell-based; conditions: C. diversus; 10 h cultivation at 37° C.
Procedure, shortened: as §1

Substance	MIC [µg/mL]
PRT998 (VPLCAPNLCQPKQICKDQKDKANCLCPDGSPGCA; listed as Homo sapiens)	25

same assay, conditions: C. diversus; 10 h cultivation at 37° C.; 5×10^5 CFU/mL

Substance	MIC (μg/mL) C. diversus [µg/mL]
PRT169 (CIRYPGCLHGTCQQPWQCNCQEGWGGLFC; listed as Homo sapiens)	12.5
PRT874 (CNCNQIGSVHDRCNETGFCECREGAAGPKCDDCLPTHYWRQGCYP; listed as Homo sapiens)	12.5
PRT156 (DINECDSNPCHHGGSCLDQPNGYNCHCPHGWVGANCE; listed as Homo sapiens)	12.5

test system: Enterobacter cloacae; assay: MIC against Gram-negative bacteria: Enterobacter cloacae; type: cell-based; conditions: E. cloacae; 10 h cultivation at 37° C.
Procedure, shortened: as §1

Substance	MIC [µg/mL]
PRT998 (VPLCAPNLCQPKQICKDQKDKANCLCPDGSPGCA; listed as Homo sapiens)	12.5

same assay, conditions: E. cloacae; 10 h cultivation at 37° C.; 5×10^5 CFU/mL

Substance	MIC (μg/mL) E. cloacae [µg/mL]
PRT169 (CIRYPGCLHGTCQQPWQCNCQEGWGGLFC; listed as Homo sapiens)	50
PRT874 (CNCNQIGSVHDRCNETGFCECREGAAGPKCDDCLPTHYWRQGCYP; listed as Homo sapiens)	12.5
PRT156 (DINECDSNPCHHGGSCLDQPNGYNCHCPHGWVGANCE; listed as Homo sapiens)	12.5

test system: Proteus vulgaris; assay: MIC against Gram-negative bacteria: Proteus vulgaris; type: cell-based; conditions: P. vulgaris; 10 h cultivation at 37° C.
Procedure, shortened: as §1

Substance	MIC [µg/mL]
PRT998 (VPLCAPNLCQPKQICKDQKDKANCLCPDGSPGCA; listed as Homo sapiens)	50

same assay, conditions: P. vulgaris; 10 h cultivation at 37° C.; 5×10^5 CFU/mL

Substance	MIC (μg/mL) P. vulgaris [µg/mL]
PRT169 (CIRYPGCLHGTCQQPWQCNCQEGWGGLFC; listed as Homo sapiens)	25
PRT874 (CNCNQIGSVHDRCNETGFCECREGAAGPKCDDCLPTHYWRQGCYP; listed as Homo sapiens)	12.5
PRT156 (DINECDSNPCHHGGSCLDQPNGYNCHCPHGWVGANCE; listed as Homo sapiens)	50

test system: Serratia marcescens; assay: MIC against Gram-negative bacteria: Serratia marcescens; type: cell-based; conditions: S. marcescens; 10 h cultivation at 37° C.
Procedure, shortened: as §1

Substance	MIC [µg/mL]
PRT998 (VPLCAPNLCQPKQICKDQKDKANCLCPDGSPGCA; listed as Homo sapiens)	25

same assay, conditions: S. marcescens; 10 h cultivation at 37° C.; 5×10^5 CFU/mL

Substance	MIC (μg/mL) S. marcescens [µg/mL]
PRT169 (CIRYPGCLHGTCQQPWQCNCQEGWGGLFC; listed as Homo sapiens)	12.5
PRT874 (CNCNQIGSVHDRCNETGFCECREGAAGPKCDDCLPTHYWRQGCYP; listed as Homo sapiens)	12.5
PRT156 (DINECDSNPCHHGGSCLDQPNGYNCHCPHGWVGANCE; listed as Homo sapiens)	50

test system: Klebsiella pneumonia; assay: MIC against Gram-negative bacteria: Klebsiella pneumonia; type: cell-based; conditions: K. pneumonia; 10 h cultivation at 37° C.
Procedure, shortened: as §1

Substance	MIC [µg/mL]
PRT998 (VPLCAPNLCQPKQICKDQKDKANCLCPDGSPGCA; listed as Homo sapiens)	50

same assay, conditions: K. pneumonia; 10 h cultivation at 37° C.; 5×10^5 CFU/mL

Substance	MIC (μg/mL) K. pneumonia [µg/mL]
PRT169 (CIRYPGCLHGTCQQPWQCNCQEGWGGLFC; listed as Homo sapiens)	100
PRT874 (CNCNQIGSVHDRCNETGFCECREGAAGPKCDDCLPTHYWRQGCYP; listed as Homo sapiens)	12.5
PRT156 (DINECDSNPCHHGGSCLDQPNGYNCHCPHGWVGANCE; listed as Homo sapiens)	25

test system: Pseudomonas aeruginosa; assay: MIC against Gram-negative bacteria: Pseudomonas aeruginosa; type: cell-based; conditions: P. aeruginosa; 10 h cultivation at 37° C.
Procedure, shortened: as §1

Substance	MIC [µg/mL]
PRT998 (VPLCAPNLCQPKQICKDQKDKANCLCPDGSPGCA; listed as Homo sapiens)	12.5

same assay, conditions: P. aeruginosa; 10 h cultivation at 37° C.; 5×10^5 CFU/mL

Substance	MIC (μg/mL) P. aeruginosa [µg/mL]
PRT169 (CIRYPGCLHGTCQQPWQCNCQEGWGGLFC; listed as Homo sapiens)	50
PRT874 (CNCNQIGSVHDRCNETGFCECREGAAGPKCDDCLPTHYWRQGCYP; listed as Homo sapiens)	12.5
PRT156 (DINECDSNPCHHGGSCLDQPNGYNCHCPHGWVGANCE; listed as Homo sapiens)	12.5

test system: E. coli BL21; assay: MIC against Gram-negative bacteria: E. coli BL21; type: cell-based; conditions: E. coli BL21; 10 h cultivation at 37° C.
Procedure, shortened: as §1

Substance	MIC [µg/mL]
PRT998 (VPLCAPNLCQPKQICKDQKDKANCLCPDGSPGCA; listed as Homo sapiens)	50

same assay, conditions: E. coli BL21; 10 h cultivation at 37° C.; 5×10^5 CFU/mL

Substance	MIC (μg/mL) E. coli BL21 [µg/mL]
PRT169 (CIRYPGCLHGTCQQPWQCNCQEGWGGLFC; listed as Homo sapiens)	12.5
PRT874 (CNCNQIGSVHDRCNETGFCECREGAAGPKCDDCLPTHYWRQGCYP; listed as Homo sapiens)	25
PRT156 (DINECDSNPCHHGGSCLDQPNGYNCHCPHGWVGANCE; listed as Homo sapiens)	12.5

test system: Moraxella catarrhalis; assay: MIC against Gram-negative bacteria: Moraxella catarrhalis; type: cell-based; conditions: M. catarrhalis; 10 h cultivation at 37° C.
Procedure, shortened: as §1

Substance	MIC [µg/mL]
PRT998 (VPLCAPNLCQPKQICKDQKDKANCLCPDGSPGCA; listed as Homo sapiens)	12.5

same assay, conditions: M. catarrhalis; 10 h cultivation at 37° C.; 5×10^5 CFU/mL

Substance	MIC (μg/mL) M. catarrhalis [µg/mL]
PRT169 (CIRYPGCLHGTCQQPWQCNCQEGWGGLFC; listed as Homo sapiens)	25
PRT874 (CNCNQIGSVHDRCNETGFCECREGAAGPKCDDCLPTHYWRQGCYP; listed as Homo sapiens)	25
PRT156 (DINECDSNPCHHGGSCLDQPNGYNCHCPHGWVGANCE; listed as Homo sapiens)	50
